Measured values: article PMC8145986, “In Vitro Enzymatic and Kinetic Studies, and In Silico Drug-Receptor Interactions, and Drug-Like Profiling of the 5-Styrylbenzamide Derivatives as Potential Cholinesterase and β-Secretase Inhibitors with Antioxidant Properties” (Antioxidants, 2021)

Biological target: T1, AChE (Homo sapiens, UniProt P22303)
T1 construct: purchased BioLegend (via Biocom Africa (Pty) Ltd.)
T1 sequence (P22303 32-614): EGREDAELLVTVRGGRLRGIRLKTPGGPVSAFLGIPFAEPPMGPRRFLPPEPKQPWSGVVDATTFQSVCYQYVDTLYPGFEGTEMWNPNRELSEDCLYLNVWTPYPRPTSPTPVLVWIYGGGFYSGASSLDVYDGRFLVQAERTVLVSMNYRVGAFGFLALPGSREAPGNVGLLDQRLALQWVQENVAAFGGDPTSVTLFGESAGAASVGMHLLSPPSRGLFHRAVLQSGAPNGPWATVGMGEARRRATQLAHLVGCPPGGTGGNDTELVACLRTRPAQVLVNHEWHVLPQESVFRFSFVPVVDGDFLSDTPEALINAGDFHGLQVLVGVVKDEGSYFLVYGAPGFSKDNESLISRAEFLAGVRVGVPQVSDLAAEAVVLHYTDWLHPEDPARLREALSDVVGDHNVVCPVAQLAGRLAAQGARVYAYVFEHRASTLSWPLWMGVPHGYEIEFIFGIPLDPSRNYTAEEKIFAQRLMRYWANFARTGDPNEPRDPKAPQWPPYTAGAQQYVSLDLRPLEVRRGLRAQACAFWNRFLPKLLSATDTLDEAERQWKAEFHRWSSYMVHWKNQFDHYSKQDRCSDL
Experiment: biochemical
Settings: mean ± SD of three independent experiments
Method: (§1) The melting point values of the test compounds were recorded on a Thermocouple digital melting point apparatus (Mettler Toledo LLC, Columbus, OH, USA). The infrared (IR) spectra were recorded using the thin-film method on a Bruker VERTEX 70 FT-IR Spectrometer (Bruker Optics, Billerica, MA, USA) equipped with an ATR (diamond attenuated total reflectance) accessory. Merck kieselgel 60 (0.063–0.200 mm) (Merck KGaA, Frankfurt, Germany) was used as a stationary phase for column chromatography. The ^1H-NMR and ^13C-NMR spectra of the prepared compounds were obtained as deuterated dimethyl sulfoxide ((CD3)2SO) solutions using Agilent 500 MHz NMR spectrometer (Agilent Technologies, Oxford, UK) operating at 500 MHz and 125 MHz for ^1H and ^13C, respectively. The chemical shifts are quoted relative to tetramethylsilane (TMS) used as an internal reference standard (δ = 0.00 ppm) or a residual protonated solvent. The high-resolution mass spectra were recorded at an ionization potential of 70 eV using Micromass Autospec-TOF (double focusing high resolution) instrument (Waters Corp., Milford, MA, USA). The synthesis and analytical data for 2-amino-5-iodobenzamide (1) have been reported in our previous study. Recombinant human AChE (BioLegend) and BChE (Cloud-Clone Corp.) were purchased via Biocom Africa (Pty) Ltd. (Centurion, Pretoria, South Africa).
(§2) AChE and BChE were used to determine cholinesterase activities spectrophotometrically using […] as substrates, respectively, following a modification of the Ellman’s method, as described in our previous study, and the reactions were performed in triplicate at 37 °C in a 96-well plate. […] A multi-channel pipette was used for the addition of reagents to the wells.
To each well of a 96-well plate, 8.0 μL solution of the test compound, 2.0 μL of AChE (0.04 mg/mL), and 70 μL of Tris buffer (C4H11NO3, 50 mM, pH 7.7) were added sequentially. The assay mixture was pre-incubated for 30 min at room temperature, which was followed by the addition of 10 μL of 5,5′-dithiobis-(2-nitrobenzoic acid) (DTNB, 3 mM in Tris buffer, 50 mM, pH 7.7) and 10 μL of […] (AChI, 5 mM in tris buffer, 50 mM, pH 7.7) to each well to initiate the reaction. […] The average values obtained from the absorbance readings were used to determine the IC50 and standard deviation values using the Graph Pad Prism (version 5.0, GraphPad software Inc., San Diego, CA, USA).
Work on `NC(=O)c1cc(/C=C/c2ccc(F)cc2)ccc1N` [Compound 2b, (E)-2-Amino-5-(4-fluorostyryl)benzamide] yielded an IC50 of 5.4 ± 0.12 µM.
`NC(=O)c1cc(/C=C/c2ccc(Cl)cc2)ccc1N` [Compound 2c, (E)-2-Amino-5-(4-chlorostyryl)benzamide] showed an IC50 of 8.6 ± 0.42 µM.
In the case of `COc1ccc(/C=C/c2ccc(N)c(C(N)=O)c2)cc1` [Compound 2d, (E)-2-Amino-5-(4-methoxystyryl)benzamide], the IC50 is reported as 7.8 ± 0.3 µM.
In the case of `Cc1ccc(S(=O)(=O)Nc2ccc(/C=C/c3ccccc3)cc2C(N)=O)cc1` [Compound 3a, (E)-5-Styryl-2-[[(4-methylphenyl)sulfonyl]amino]benzamide], the IC50 is reported as 9.5 ± 0.53 µM.
In the case of `Cc1ccc(S(=O)(=O)Nc2ccc(/C=C/c3ccc(F)cc3)cc2C(N)=O)cc1` [Compound 3b, (E)-5-(4-Fluorostyryl)-2-[[(4-methylphenyl)sulfonyl]amino]benzamide], the IC50 is reported as 4.3 ± 0.48 µM.

Biological target: T2, BChE (Homo sapiens, UniProt P06276)
T2 construct: purchased Cloud-Clone Corp. (via Biocom Africa (Pty) Ltd.)
T2 sequence (P06276 29-602): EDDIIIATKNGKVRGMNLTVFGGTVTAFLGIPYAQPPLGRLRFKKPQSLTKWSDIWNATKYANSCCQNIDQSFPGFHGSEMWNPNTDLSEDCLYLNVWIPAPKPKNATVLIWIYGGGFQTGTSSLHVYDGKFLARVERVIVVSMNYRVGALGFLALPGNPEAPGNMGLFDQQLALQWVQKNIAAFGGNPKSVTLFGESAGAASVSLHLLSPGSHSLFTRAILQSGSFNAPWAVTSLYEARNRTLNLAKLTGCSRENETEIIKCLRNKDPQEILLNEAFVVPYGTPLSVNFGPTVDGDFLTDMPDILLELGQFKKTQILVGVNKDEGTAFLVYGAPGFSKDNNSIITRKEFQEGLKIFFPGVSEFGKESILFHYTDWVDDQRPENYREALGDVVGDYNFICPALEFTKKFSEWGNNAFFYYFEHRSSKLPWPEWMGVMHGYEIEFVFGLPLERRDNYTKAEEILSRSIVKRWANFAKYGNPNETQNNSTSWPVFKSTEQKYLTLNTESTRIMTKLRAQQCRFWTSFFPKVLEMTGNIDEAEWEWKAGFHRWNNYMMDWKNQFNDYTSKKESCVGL
Experiment: biochemical
Settings: mean ± SD of three independent experiments
Method: as §1, §2
A total of 8.0 μL of the test compound and 2.0 μL of BChE (0.02 mg/mL) was added to each of the designated wells of the 96-well plate, and the mixtures were incubated at room temperature for 30 min. Tris buffer (70 μL) was added to each well containing the reaction mixture and incubation was continued for a further 10 min at this temperature, which was followed by the addition of 10 μL solution of 5,5′-dithiobis-(2-nitrobenzoic acid) (DTNB) (3 mM in Tris buffer, 50 mM, pH 7.7) and butyrylcholine iodide (5 mM in Tris buffer, 50 mM, pH 7.7) to each well to initiate the reaction. […] The IC50 and standard deviation values using the Graph Pad Prism.
With `NC(=O)c1cc(/C=C/c2ccc(F)cc2)ccc1N` [Compound 2b, (E)-2-Amino-5-(4-fluorostyryl)benzamide] the IC50 was 19.7 ± 0.25 µM.
Work on `NC(=O)c1cc(/C=C/c2ccc(Cl)cc2)ccc1N` [Compound 2c, (E)-2-Amino-5-(4-chlorostyryl)benzamide] yielded an IC50 of 18.9 ± 0.24 µM.
For `COc1ccc(/C=C/c2ccc(N)c(C(N)=O)c2)cc1` [Compound 2d, (E)-2-Amino-5-(4-methoxystyryl)benzamide], the IC50 was 14.6 ± 0.47 µM.
In the case of `Cc1ccc(S(=O)(=O)Nc2ccc(/C=C/c3ccccc3)cc2C(N)=O)cc1` [Compound 3a, (E)-5-Styryl-2-[[(4-methylphenyl)sulfonyl]amino]benzamide], the IC50 is reported as 10.8 ± 0.4 µM.
For `Cc1ccc(S(=O)(=O)Nc2ccc(/C=C/c3ccc(F)cc3)cc2C(N)=O)cc1` [Compound 3b, (E)-5-(4-Fluorostyryl)-2-[[(4-methylphenyl)sulfonyl]amino]benzamide], the IC50 was 8.1 ± 0.52 µM.

Biological target: T3, β-secretase (Homo sapiens, UniProt P56817)
T3 construct: purchased Thermo Fisher Scientific Corporation; host or cells: baculovirus-expressed
T3 sequence (P56817 46-501): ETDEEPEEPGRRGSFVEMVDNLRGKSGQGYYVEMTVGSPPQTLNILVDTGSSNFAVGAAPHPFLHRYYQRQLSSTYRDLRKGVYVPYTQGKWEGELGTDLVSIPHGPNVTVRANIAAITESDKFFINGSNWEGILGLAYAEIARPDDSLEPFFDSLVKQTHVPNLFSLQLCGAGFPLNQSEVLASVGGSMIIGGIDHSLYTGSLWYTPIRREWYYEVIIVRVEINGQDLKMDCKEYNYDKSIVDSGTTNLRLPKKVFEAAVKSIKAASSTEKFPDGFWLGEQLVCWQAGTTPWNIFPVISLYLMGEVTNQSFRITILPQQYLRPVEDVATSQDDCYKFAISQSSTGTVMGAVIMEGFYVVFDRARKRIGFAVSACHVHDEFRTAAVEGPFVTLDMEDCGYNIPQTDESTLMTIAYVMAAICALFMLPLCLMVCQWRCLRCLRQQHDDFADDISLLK
Experiment: β-Secretase (BACE-1) inhibition assay
Format: biochemical
Settings: mean ± SD of three independent experiments
Method: The β-secretase inhibitory activities of the test compounds were assayed in triplicates in 96-well plates using a recombinant baculovirus-expressed β-secretase and a specific substrate (Rh-[…]-Quencher), according to the manufacturer’s (Thermo Fisher Scientific Corporation, Johannesburg, Gauteng, South Africa) instructions, as described in our previous study. […] To each well, 2.0 μL human recombinant β-secretase (1.0 U/mL) was added to start the reaction and the reaction mixture was incubated for 60 min at room temperature. […] The IC50 and standard deviation values of both the test compounds and reference standard were calculated using the Graph Pad Prism.
Compound `NC(=O)c1cc(/C=C/c2ccc(F)cc2)ccc1N` [Compound 2b, (E)-2-Amino-5-(4-fluorostyryl)benzamide] has an IC50 of 13.9 ± 0.25 µM.
`NC(=O)c1cc(/C=C/c2ccc(Cl)cc2)ccc1N` [Compound 2c, (E)-2-Amino-5-(4-chlorostyryl)benzamide] showed an IC50 of 6.7 ± 0.18 µM.
Compound `COc1ccc(/C=C/c2ccc(N)c(C(N)=O)c2)cc1` [Compound 2d, (E)-2-Amino-5-(4-methoxystyryl)benzamide] has an IC50 of 17.2 ± 0.31 µM.
In the case of `Cc1ccc(S(=O)(=O)Nc2ccc(/C=C/c3ccccc3)cc2C(N)=O)cc1` [Compound 3a, (E)-5-Styryl-2-[[(4-methylphenyl)sulfonyl]amino]benzamide], the IC50 is reported as 16.5 ± 0.31 µM.
Compound `Cc1ccc(S(=O)(=O)Nc2ccc(/C=C/c3ccc(F)cc3)cc2C(N)=O)cc1` [Compound 3b, (E)-5-(4-Fluorostyryl)-2-[[(4-methylphenyl)sulfonyl]amino]benzamide] has an IC50 of 10.1 ± 0.18 µM.

Test system: not listed separately
Experiment: DPPH radical scavenging assay
Settings: read-out: IC50 (SD) DPPH
Method: The antioxidant activities of the test compounds against ascorbic acid (Sigma Aldrich, Saint Louis, MO, USA) as a positive control were evaluated using a 2,2-diphenyl-1-picrylhydrazyl (DPPH) radical scavenging assay developed by Zhu et al., as described in our previous study. Duplicate solutions (20 μL) of the test compounds and ascorbic acid in DMSO (final concentrations: 5, 10, 25, 50, and 100 μM) were added into each designated well of a 96-well plate. A solution of DPPH (0.20 mM) (20 μL) in methanol was added to each well, and the 96-well plate was wrapped with aluminium foil and incubated in the dark for 45 min. Five absorbance readings were recorded at 512 nm using a Varioskan flash microplate spectrophotometer reader. The average values obtained from the absorbance readings were used to determine the IC50 and standard deviation values.
`NC(=O)c1cc(/C=C/c2ccc(F)cc2)ccc1N` [Compound 2b, (E)-2-Amino-5-(4-fluorostyryl)benzamide] gave an IC50 of 12.9 ± 0.22 µM.
Compound `NC(=O)c1cc(/C=C/c2ccc(Cl)cc2)ccc1N` [Compound 2c, (E)-2-Amino-5-(4-chlorostyryl)benzamide] has an IC50 of 11.3 ± 0.11 µM.
Compound `COc1ccc(/C=C/c2ccc(N)c(C(N)=O)c2)cc1` [Compound 2d, (E)-2-Amino-5-(4-methoxystyryl)benzamide] has an IC50 of 20.8 ± 0.24 µM.
`Cc1ccc(S(=O)(=O)Nc2ccc(/C=C/c3ccccc3)cc2C(N)=O)cc1` [Compound 3a, (E)-5-Styryl-2-[[(4-methylphenyl)sulfonyl]amino]benzamide] showed an IC50 of 19.4 ± 0.4 µM.
In the case of `Cc1ccc(S(=O)(=O)Nc2ccc(/C=C/c3ccc(F)cc3)cc2C(N)=O)cc1` [Compound 3b, (E)-5-(4-Fluorostyryl)-2-[[(4-methylphenyl)sulfonyl]amino]benzamide], the IC50 is reported as 25.6 ± 0.3 µM.

Test system: not listed separately
Experiment: Nitric oxide radical scavenging assay (Griess reaction)
Settings: NO radical scavenging
Method: Nitric oxide was generated from sodium nitroprusside and measured by Griess’ reaction following the literature method. The experiment was done in triplicate with ascorbic acid (vitamin C) used as a positive control for the assay. In total, 50 μL of each of the test compounds and the positive control at various concentrations (0.1, 0.5, 1.0, 5.0, and 10.0 μM in methanol) were added to each designated well of the 96 well plate. A total of 50 μL of sodium nitroprusside (10 mM) prepared in saline phosphate buffer (pH = 7.4) was then added to each well and the reaction mixture incubated at room temperature for 3 h. Afterward, 300 μL of the Griess reagent (a mixture of 0.2% N-(1-naphthyl)ethylenediamine dihydrochloride and 2% sulfanilamide in […]) was added to each well and absorbance was read at 546 nm using a Varioskan flash microplate spectrophotometer reader.
With `NC(=O)c1cc(/C=C/c2ccc(F)cc2)ccc1N` [Compound 2b, (E)-2-Amino-5-(4-fluorostyryl)benzamide] the IC50 was 15.8 ± 0.3 µM.
Work on `NC(=O)c1cc(/C=C/c2ccc(Cl)cc2)ccc1N` [Compound 2c, (E)-2-Amino-5-(4-chlorostyryl)benzamide] yielded an IC50 of 9.3 ± 0.13 µM.
In the case of `COc1ccc(/C=C/c2ccc(N)c(C(N)=O)c2)cc1` [Compound 2d, (E)-2-Amino-5-(4-methoxystyryl)benzamide], the IC50 is reported as 11.2 ± 0.22 µM.
Work on `Cc1ccc(S(=O)(=O)Nc2ccc(/C=C/c3ccccc3)cc2C(N)=O)cc1` [Compound 3a, (E)-5-Styryl-2-[[(4-methylphenyl)sulfonyl]amino]benzamide] yielded an IC50 of 13.1 ± 0.43 µM.

Test system: not listed separately
Experiment: Cytotoxicity (MTT assay) on Vero cells
Settings: monkey, Vero cells (normal monkey kidney cells)
Method: (§3) The cytotoxicity activity of the compounds was evaluated using the 3-(4,5-dimethylthiazol-2-yl)-2,5-diphenyltetrazolium bromide (MTT) assay following a modification of a method by Mosmann. Normal monkey kidney cells (Vero cells) and adeno-carcinomic human epithelial cells (A549 cells) were maintained in Dulbecco’s modified Eagle’s medium (DMEM, Gibco) supplemented with 10% fetal bovine serum (FBS) and 1% penicillin/streptomycin in culture flasks and incubated at 37 °C in 5% CO2. […] Cells were seeded at 1 × 10^5 cells/well and incubated overnight to allow cell attachment. After 24 h, treatments were administered with different concentrations (0, 2.5, 5, 10, 25, 50, and 100 μM) of the compounds and doxorubicin (positive control). After 24 h of incubation, 20 μL of the MTT solution (5 mg/mL) was added in all the wells, which was followed by 4 h of incubation.
`Cc1ccc(S(=O)(=O)Nc2ccc(/C=C/c3ccc(F)cc3)cc2C(N)=O)cc1` [Compound 3b, (E)-5-(4-Fluorostyryl)-2-[[(4-methylphenyl)sulfonyl]amino]benzamide] showed an IC50 at 24 h of 191.4 ± 0.6 µM.

Test system: not listed separately
Experiment: in vitro
Settings: human, A549 cells (adeno-carcinomic human epithelial cells)
Method: as §3
For `Cc1ccc(S(=O)(=O)Nc2ccc(/C=C/c3ccc(F)cc3)cc2C(N)=O)cc1` [Compound 3b, (E)-5-(4-Fluorostyryl)-2-[[(4-methylphenyl)sulfonyl]amino]benzamide], the IC50 at 24 h was 55 ± 0.11 µM.

Test system: Vero cells
Experiment: LPS-induced ROS production in Vero cells (H2DCF-DA)
Format: cell-based, monkey
Settings: 10 μM compound, LPS 1 μg/mL, 24 h (Figure 9a)
Method: (§4) Mitochondrial ROS levels in Vero and A549 cell lines was measured using the 2′,7′-dichlorofluorescin diacetate (H2DCF-DA) (Sigma-Aldrich, St. Louis, MO, USA, Merck, Darmstadt, Germany), fluorescent probe. Cells (1 × 10^5) were seeded in 96 well plates and incubated overnight at 37 °C in 5% CO2. A minimum non-toxic concentration (10 μM) of compounds (2a and 3b) was added separately as treatment and further incubated for an hour, after which LPS (1 μg/mL) was added to induce the production of ROS. After 24 h of incubation, the media was aspirated, cells were rinsed with PBS, and followed by the addition of H2DCF-DA (10 μM) for 30 min in the dark. The absorbance of the fluorescence was measured using a microplate reader (VarioSkan Flash, Thermo Fisher Scientific, Finland) at 485 and 535 nm values of excitation and emission, respectively. Data was processed and analysed using ANOVA, which was followed by Duncan’s multiple comparison test.
With `Cc1ccc(S(=O)(=O)Nc2ccc(/C=C/c3ccc(F)cc3)cc2C(N)=O)cc1` [Compound 3b, (E)-5-(4-Fluorostyryl)-2-[[(4-methylphenyl)sulfonyl]amino]benzamide] the “suppression of LPS-induced ROS” value was ~40%.

Test system: A549 cells
Experiment: LPS-induced ROS production in A549 cells (H2DCF-DA)
Format: cell-based, human
Settings: 10 μM compound, LPS 1 μg/mL, 24 h (Figure 9b)
Method: as §4
In the case of `Cc1ccc(S(=O)(=O)Nc2ccc(/C=C/c3ccc(F)cc3)cc2C(N)=O)cc1` [Compound 3b, (E)-5-(4-Fluorostyryl)-2-[[(4-methylphenyl)sulfonyl]amino]benzamide], the “ROS reduction (in words)” value is reported as “significant ROS reduction”.
